Starred links: 1 amine or outer side, 2 acyl side, 3 side chain; linkers in the order of their positions; H or OH if unused. Non-standard residues stand in square brackets, D forms with d. Residues, ends and D or L forms follow the SMILES beside them. *: point of attachment. NOTA = O=C(O)CN1CCN(CC(=O)O)CCN(CC(=O)*)CC1; Sta = CC(C)C[C@H](N)[C@@H](O)CC(=O)O; X2 = O=C(COc1cccc(CN[*:1])c1)[*:2]
Tested on: PC-3 xenografts
Assay: PET/CT imaging of mice bearing PC-3 xenografts
Assay type: in vivo
Settings: 2 h post injection, 100 pmol i.v.
Protocol: For PET/CT imaging, animals bearing PC-3 xenografts were used. The animals received a single intravenous injection of the corresponding ^68Ga-radiolabeled peptide (100 pmol, 1.2 MBq) and 2 h post injection they were euthanized using CO2. For image acquisition, Nano PET 3T (PET/MRI) and nanoScan (SPECT/CT) (Mediso Medical Imaging Systems, Budapest, Hungary) tomographs were used. Reconstruction of the PET scans was conducted using Nucline nanoScan 3.04.014.0000 software. CT data were reconstructed using Filter Back Projection in Nucline 2.03 Software (Mediso Medical Imaging Systems Ltd., Budapest, Hungary). For their fusion, Nucline 2.03 Software was used, and PET images are presented as maximum intensity projections (MIP) with an equivalent color scale.

CC(=O)N[C@@H](CCCCNC(=O)CN1CCN(CC(=O)O)CCN(CC(=O)O)CC1)C(=O)NCc1cccc(OCC(=O)N[C@H](Cc2ccccc2)C(=O)N[C@@H](CCC(N)=O)C(=O)N[C@@H](Cc2c[nH]c3ccccc23)C(=O)N[C@@H](C)C(=O)N[C@H](C(=O)NCC(=O)N[C@@H](Cc2c[nH]cn2)C(=O)N[C@@H](CC(C)C)[C@@H](O)CC(=O)N[C@@H](CC(C)C)C(N)=O)C(C)C)c1 [NOTA-mMA-RM26] (Ac-K(NOTA)[X2][dF]QWAVGH[Sta]L-NH2)
uptake in PC-3 tumors on PET images: lower uptake

From PMC12332157, “A preclinical study on the influence of linkers in [^68Ga]Ga-NOTA-X-RM26 radiotracers for PET imaging of GRPR expression” (EJNMMI Research, 2025)
